Reference: patent US8236509B2, “Method for preparing antibody monolayers which have controlled orientation using peptide hybrid” (Korea Research Institute of Bioscience and Biotechnology, priority 2007, dated 2012)
Entries after “also recorded” stand apart in the source; their conditions may differ.

Tests used:
[1] = test system: mouse originated IgG; experiment: Antibody binding to magnetic micro beads surface-treated with peptide hybrid (PAGE); settings: antibody 0.1 mg/ml, bead 2 mg/ml
Method: (§1) The surface of the magnetic micro bead containing a carboxyl group was activated by loading 25 mM of MES (pH 6) containing NHS (0.4 M) and EDC (0.2 M). Only magnetic micro bead was recovered by using a magnet and the activated magnetic micro bead was reacted with 0.2 mg/ml of the peptide hybrid of 1a at room temperature for one hour. The activated magnetic micro bead was reacted with PBS alone for the control group. Non-reacted active ester group was inactivated by using 1 M of ethanolamine (pH 8.5). Both the magnetic micro bead with the peptide hybrid of 1a attached and the magnetic micro bead without the peptide hybrid of 1a were repeatedly washed by PBS and diluted in PBS (final concentration: 5 mg/ml).
(§2) To confirm the binding of the magnetic micro bead adhered with the peptide hybrid of 1a to the antibody, 2 mg/ml (final concentration) of the magnetic micro bead and 0.1 mg/ml of the antibody used in Example <3-2> were mixed to induce binding reaction. After inducing reaction for one hour at room temperature, the magnetic micro bead was dragged down to the bottom of the vessel by using a magnet and the supernatant was eliminated. This process was repeated five times to remove the non-reacted antibodies. The magnetic micro bead reacted with the antibody was added in PAGE loading buffer containing a reducing agent (2-mercaptoethanol), which was heated to separate the antibody chain from the magnetic micro bead, followed by PAGE.
(§3) The antibody bound to the magnetic micro bead was quantified by using 12% polyacrylamide gel containing 10% SDS. Particularly, 20 μl of PBS containing 2% micro bead was mixed with 5 μl of sample buffer (pH 6.8; 60 mM Tris-HCl, 25% glycerol, 2% SDS, 14.4 mM 2-mercaptoethanol, 0.1% bromophenol blue, H2O), followed by heating at 90° C. for 10 minutes. 15 μl of the sample was placed on each well of polyacrylamide gel. 200 V of voltage was applied thereto at room temperature for one hour to migrate sample, followed by dipping the gel in the staining solution (0.5% coomassie blue, 45% methanol, 10% acetic acid solution) at room temperature for 30 minutes. Upon completion of staining, the gel was transferred into the destaining solution (10% methanol, 10% acetic acid solution), followed by stirring at room temperature for 3 hours. The excessive staining reagent was eliminated by washing.

[2] = test system: goat originated IgG; experiment: as above; settings: antibody 0.1 mg/ml, bead 2 mg/ml
Method: as §1, §2, §3

[3] = target: T1, rabbit originated IgG (Oryctolagus cuniculus, UniProt P01870); experiment: as above; settings: antibody 0.1 mg/ml, bead 2 mg/ml
T1 construct: purchased Sigma-Aldrich (USA)
Method: as §1, §2, §3

[4] = test system: human originated HIgG; experiment: as above; settings: antibody 0.1 mg/ml, bead 2 mg/ml
Method: as §1, §2, §3

[5] = target: BSA (Bos taurus, UniProt P02769); experiment: SPR binding capacity on peptide-hybrid-treated CM-5 Au sensor chip (control protein)
Method: (§4) Then, PBS containing 100 μM of the peptide hybrid was spilled thereon at the same speed for 30 minutes. […] The surface area remaining non-reacted with the peptide hybrid was inactivated by using 1 M of ethanolamine solution (pH 8.5).

[6] = target: HIgG1; experiment: SPR binding affinity (Biacore 3000, nonlinear regression); set-up: species or system human; settings: antibody 100-1,000 nM, CM-5 chip
Method: The values were analyzed by nonlinear regression using BIAevaluation software equipped in Biacore 3000 to draw a theoretical line graph (FIG. 4a).

[7] = test system: MIgGA; experiment: SPR binding capacity, antibody isotypes; set-up: species or system mouse; settings: CM-5 Au sensor chip
Method: as §4

[8] = test system: MIgG3; experiment: SPR binding capacity, antibody isotypes; set-up: species or system mouse; settings: CM-5 Au sensor chip
Method: as §4

[9] = test system: MIgG2; experiment: SPR binding capacity, antibody isotypes; set-up: species or system mouse; settings: CM-5 Au sensor chip
Method: as §4

[10] = target: T2, rabbit IgG (Oryctolagus cuniculus, UniProt P01870); experiment: Cy3-labeled antibody binding to glass plate surface-treated with peptide hybrid (fluorescence); set-up: purchased Sigma-Aldrich (USA); settings: fluorescence image
Method: (§5) The glass plate was treated with a mixed solution of 95% sulfuric acid and 5% hydrogen peroxide (V/V 3:1) at 60° C. for 30 minutes, followed by washing with distilled water and ethanol. The washed glass plate was soaked in 1% APTS, followed by reaction for 4 hours at room temperature to introduce amine group. The amine group introduced glass plate was reacted in 1 M succinic anhydride-DMF solution at 37° C. for 4 hours to generate carboxyl group on the glass plate. The glass plate was washed with distilled water and ethanol and dried using nitrogen gas and then stored in a vacuum drier. The carboxyl group introduced glass plate was treated with a mixed solution of 0.1 M EDC and 0.025 M NHS for 15 minutes to activate its surface. The activated glass plate was washed with distilled water and dried using nitrogen gas. The peptide hybrid for protein immobilization of 1a was dissolved in PBS containing 40% glycerol at the final concentration of 0.5 mg/ml, which was dropped on the glass plate by 1 μl per each drop, followed by reaction for 2 hours. The non-reacted active ester remaining on the glass plate was inactivated by using 1 M of ethanolamine (pH 8.5) and washed with PBS. […]

[11] = Stability of peptide-treated chip surface to washing with 20 mM NaOH and reuse; format: physicochemical; settings: CM-5 chip, reused for antigen-antibody binding
[12] = Storage stability of glass plate surface-treated with peptide hybrid; format: physicochemical; settings: several months storage at room temperature
Method: The glass plate was treated with a mixed solution of 95% sulfuric acid and 5% hydrogen peroxide (V/V 3:1) at 60° C. for 30 minutes, followed by washing with distilled water and ethanol. The washed glass plate was soaked in 1% APTS, followed by reaction for 4 hours at room temperature to introduce amine group. The amine group introduced glass plate was reacted in 1 M succinic anhydride-DMF solution at 37° C. for 4 hours to generate carboxyl group on the glass plate. The glass plate was washed with distilled water and ethanol and dried using nitrogen gas and then stored in a vacuum drier. The carboxyl group introduced glass plate was treated with a mixed solution of 0.1 M EDC and 0.025 M NHS for 15 minutes to activate its surface. The activated glass plate was washed with distilled water and dried using nitrogen gas. The peptide hybrid for protein immobilization of 1a was dissolved in PBS containing 40% glycerol at the final concentration of 0.5 mg/ml, which was dropped on the glass plate by 1 μl per each drop, followed by reaction for 2 hours. The non-reacted active ester remaining on the glass plate was inactivated by using 1 M of ethanolamine (pH 8.5) and washed with PBS.
The Cy3 labeled antibody solution was dropped on the glass plate surface-treated with the hybrid of 1a by 50 μl per each drop, followed by reaction for one hour at room temperature. […]

[13] = test system: goat IgG; experiment: Cy3-labeled antibody binding to glass plate surface-treated with peptide hybrid (fluorescence); settings: fluorescence image
Method: as §5

[14] = test system: MIgG (mixture of MIgG 1-MIgG 3); experiment: as above; set-up: species or system mouse; settings: fluorescence image
Method: as §5

[15] = test system: HIgG1; experiment: SPR binding capacity, antibody isotypes; set-up: species or system human; settings: CM-5 Au sensor chip
Method: as §4

[16] = test system: HIgG2; experiment: SPR binding capacity, antibody isotypes; set-up: species or system human; settings: CM-5 Au sensor chip
Method: as §4

[17] = test system: HIgG3; experiment: SPR binding capacity, antibody isotypes; set-up: species or system human; settings: CM-5 Au sensor chip
Method: as §4

[18] = target: T2, rabbit IgG; experiment: biochemical
[19] = target: T3, MIgG1 (Mus musculus, UniProt P01868); experiment: SPR binding capacity, antibody isotypes; settings: CM-5 Au sensor chip
T3 construct: purchased Sigma-Aldrich (USA)
Method: as §4

[20] = test system: HIgG (mixture of HIgG 1-HIgG 3); experiment: Cy3-labeled antibody binding to glass plate surface-treated with peptide hybrid (fluorescence); set-up: species or system human; settings: fluorescence image
Method: as §5

[21] = test system: human originated IgG (HIgGs 1-3); experiment: SPR binding capacity on peptide-hybrid-treated CM-5 Au sensor chip
Method: as §4

[22] = test system: mouse originated antibodies (mixed composition of MIgGs 1-3); experiment: as above
Method: as §4

[23] = test system: goat originated antibody; experiment: as above
Method: as §4

[24] = target: T1, rabbit originated IgG; experiment: as above
Method: as §4

[25] = test system: CRP; settings: SPR, CRP 5 μg/ml, anti-CRP antibody immobilized via the hybrid
Method: Then, PBS containing CRP at the same concentration as the above was spilled thereon, followed by measuring the antigen-antibody binding by surface plasmon resonance (SPR) using Biacore 3000. The surface of the chip was recovered by 20 mM NaOH solution for the repeat of the experiment to measure the antigen-antibody binding.
A buffer containing 0.2 M EDC and 0.05 M NHS was spilled on the dextran CM-5 Au sensor chip (BIacore AB, Sweden) at the speed of 7 μl/minute to activate carboxyl group on the surface of the sensor chip. Then, PBS containing 5 μg/ml of anti-CRP antibody was spilled thereon for 30 minutes at the same speed. The antibody was bound via the reaction of the terminal amine group with the carboxyl group on the sensor chip activated as NHS ester form. The surface not reacted with the antibody was inactivated by using 1 M ethanolamine solution (pH 8.5).
PBS containing 5 μg/ml of CRP was spilled on the anti-CRP antibody chip with the chemical immobilization and the anti-CRP antibody chip with the immobilization by the peptide hybrid of 1a respectively at the speed of 10 μl/minute, followed by measuring the degree of antigen-antibody binding by surface plasmon resonance using Biacore 3000.

[26] = test system: human, rabbit, mouse and goat antibodies; experiment: SPR binding capacity on peptide-hybrid-treated CM-5 Au sensor chip, different antibodies; settings: antibody 5 μg/ml in PBS
Method: as §4

T1 sequence (P01870 whole entry): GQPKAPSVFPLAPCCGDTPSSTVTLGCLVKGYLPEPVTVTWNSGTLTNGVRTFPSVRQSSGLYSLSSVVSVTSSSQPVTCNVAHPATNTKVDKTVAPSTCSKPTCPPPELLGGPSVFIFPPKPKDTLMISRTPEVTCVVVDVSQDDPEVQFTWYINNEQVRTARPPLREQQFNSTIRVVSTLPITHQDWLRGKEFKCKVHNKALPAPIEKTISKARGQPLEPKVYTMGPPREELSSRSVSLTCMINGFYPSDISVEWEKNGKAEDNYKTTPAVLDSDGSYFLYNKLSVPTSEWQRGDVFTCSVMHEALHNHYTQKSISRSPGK
T2 sequence (P01870 whole entry): as above

## CC(C)C[C@@H]1NC(=O)[C@H](Cc2c[nH]cn2)NC(=O)[C@H](Cc2c[nH]c3ccccc23)NC(=O)[C@H](C)NC(=O)[C@@H](NC(=O)[C@H](CC(=O)O)NC(=O)[C@H](CC(=O)O)NC(=O)[C@H](CCC(=O)O)NC(=O)CCOCCOCCN)CSSC[C@@H](C(=O)N[C@H](C(N)=O)[C@@H](C)O)NC(=O)[C@H](Cc2c[nH]c3ccccc23)NC(=O)[C@H](C(C)C)NC(=O)[C@H](CC(C)C)NC(=O)[C@H](CCC(=O)O)NC(=O)CNC1=O [formula 1a, H2N(CH2CH2O)2CH2CH2COEDDC*AWHLGELVWC*T-CONH2]
[1]
  binding to mouse originated IgG, magnetic micro bead: not
[2]
  binding to goat originated IgG, magnetic micro bead: not
[3]
  binding to rabbit originated IgG, magnetic micro bead: effectively bound
[4]
  binding to human originated HIgG, magnetic micro bead: effectively bound
[5]
  binding to BSA (SPR), in words: not bound
[6]
  Kd: 85 nM
[7]
  binding to MIgGA (SPR), in words: hardly bound
[8]
  binding to MIgG3 (SPR), in words: to some degree
[9]
  binding to MIgG2 (SPR), in words: hardly bound
[10]
  binding of rabbit originated antibodies to glass plate: bound very well
[11]
  antibody binding capacity of the peptide-treated surface after washing with 20 mM NaOH: without reducing the antibody binding capacity; also recorded: antibody binding capacity was not reduced
[12]
  antibody binding capacity of surface-treated glass plate after storage: maintain its antibody binding capacity
[13]
  binding of goat originated antibodies to glass plate: not bound well
[14]
  binding of mouse originated antibodies to glass plate: not bound well
[15]
  binding to HIgG1 (SPR), in words: particularly strongly bound; also recorded: effectively bound
[16]
  binding to HIgG2 (SPR), in words: particularly strongly bound; also recorded: effectively bound
[17]
  binding to HIgG3 (SPR), in words: barely bound
[18]
  Kd: 305 nM
[19]
  binding to MIgG1 (SPR), in words: hardly bound
[20]
  binding of human originated antibodies to glass plate: bound very well
[21]
  binding to human originated antibodies (SPR), in words: immobilized effectively
[21]; saturated level
  SPR binding level, human originated IgG: 12000 RU
[22]
  binding to mouse originated antibodies (SPR), in words: not successfully immobilized; also recorded: only at minimum level
[23]
  binding to goat originated antibody (SPR), in words: not successfully immobilized; also recorded: only at minimum level
[24]
  binding to rabbit originated antibodies (SPR), in words: immobilized effectively
[24]; saturated level
  SPR binding level, rabbit originated IgG: 12000 RU
[25]
  antigen-antibody binding capacity relative to chip with chemically immobilized anti-CRP antibody: approximately 1.6 fold

## H2N(CH2CH2O)nCH2CH2COXDC*AWHLGELVWC*T-CONH2 [formula 1]
[26]
  binding to the different types of antibodies (SPR): strongly attached
[21]
  binding to human originated antibodies (SPR), in words: strongly bound
[24]
  binding to rabbit originated antibodies (SPR), in words: strongly bound
